According to paper PMC4856767 (Cell Research, 2016):
“Also recorded” adds a separate entry of the source. No end group written: not given here.

What was measured:
PXL1^LRR = assay: In vitro GST pull-down, PXL1^LRR; format: binding, Arabidopsis; conditions: GS4B resin, wash 10 mM Bis-Tris pH 6.0, 100 mM NaCl; SDS-PAGE, Coomassie blue; Figure 1A
PXL2^LRR = assay: In vitro GST pull-down, PXL2^LRR; format: binding, Arabidopsis; conditions: GS4B resin, wash 10 mM Bis-Tris pH 6.0, 100 mM NaCl; SDS-PAGE, Coomassie blue; Figure 1A
[1] = molecular target: T1, extracellular LRR domain of PXY (PXY^LRR, residues 1-647) (Arabidopsis, UniProt Q9FII5 30-647); assay: ITC
T1 sequence: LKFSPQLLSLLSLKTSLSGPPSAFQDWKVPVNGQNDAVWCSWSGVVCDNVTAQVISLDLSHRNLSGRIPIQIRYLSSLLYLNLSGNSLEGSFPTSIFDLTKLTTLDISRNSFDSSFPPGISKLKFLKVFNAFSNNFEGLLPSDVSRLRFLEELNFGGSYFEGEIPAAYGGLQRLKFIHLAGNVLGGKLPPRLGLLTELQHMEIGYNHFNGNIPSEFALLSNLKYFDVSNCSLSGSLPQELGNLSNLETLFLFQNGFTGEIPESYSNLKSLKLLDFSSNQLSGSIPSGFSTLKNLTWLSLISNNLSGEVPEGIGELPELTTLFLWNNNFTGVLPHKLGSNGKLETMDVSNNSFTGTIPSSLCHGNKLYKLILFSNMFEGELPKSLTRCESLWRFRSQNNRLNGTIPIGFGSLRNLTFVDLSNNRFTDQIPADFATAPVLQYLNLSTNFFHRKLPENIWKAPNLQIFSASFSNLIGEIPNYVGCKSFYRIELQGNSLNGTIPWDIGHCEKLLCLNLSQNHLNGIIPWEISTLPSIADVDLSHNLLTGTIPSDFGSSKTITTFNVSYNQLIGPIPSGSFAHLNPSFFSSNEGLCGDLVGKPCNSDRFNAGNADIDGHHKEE

[2] = molecular target: T1, extracellular LRR domain of PXY …; assay: pull-down

Question: Which “interaction with PXL1^LRR in pull-down” value (PXL1^LRR) does the source give for “GST-TDIF: GST tagged-TDIF protein expressed in E. coli strain BL21 (DE3) (HEVPSGPNPISN; also: GST tag, end not given here)” here?
Answer: The value was “can pull-down; also recorded: much lower affinities”.

Question: And the “interaction with PXL2^LRR in pull-down” value (PXL2^LRR)?
Answer: The value was “can pull-down; also recorded: much lower affinities”.

Question: Which Kd [1] does the source give for REVPSGPNPISN [synthetic mutant peptide TDIF^H1R] here?
Answer: Its Kd is roughly 68 nM.

Question: Does HEVPSGPNPISN [recombinant GST-TDIF] bind [2]?
Answer: Result: binds
